Measured values published in US9861647B2 (Prelief Inc., priority 2007, dated 2018).

Legend:
[1] = Tolerability in dogs: daily observations, body weights, blood chemistry; format: in vivo, Beagle dogs
Method: Ragweed sensitized beagle dogs (n=5) with preexisiting nasal and airway allergic responses were utilized in the animal study described in this Example. Dogs served as their own control and initially were treated with vehicle (sterile water) and then rested for 5 weeks prior to receiving the test compound. […] Based on the aerosol testing only 1.6 mg/dog could be delivered by inhalation during a 15 minute exposure (20 mg/ml solution). In addition, each dog received twice daily an intranasal instillation of 30 mg (2×375 μl of 20 mg/ml in each nostril) given within 30 minutes after the end of the inhalation exposures.
(§1) Vehicle (sterile water) was given twice daily by inhalation (15 minutes) followed by intranasal instillation of water (2×250 μl in each nostril). […] The test-article and the compound solution were prepared in the morning of each treatment day. Vehicle and test-article were administered by inhalation and intranasal instillation twice a day. Dosing of vehicle or test compound was achieved by utilizing a face mask connected to a jet nebulizer for inhalation delivery followed by intranasal instillation in both nostrils using an Accuspray device.
Blood sample was collected by placing a venous (cephalic or saphenous) catheter in the leg prior to anesthesia or by venipuncture (jugular) using a syringe or needle-vacutainer. […]

[2] = pH of the nebulizer solution; format: physicochemical; details: 20 mg/ml in sterile water
Method: as §1
Treatment occurred on Days 0 to 5 (only AM on Day 5). Vehicle and compound were delivered in the morning (8:15-9:10 am) and the afternoon (2:00-3:30 pm). On days when acoustic rhinometry procedures were performed (Days 0), the morning dosing occurred such that the procedures were performed within 1-6 h after dosing. The pH of the compound (as administered for nasal inhalation) was recorded prior to administration. As identified in the aerosol exposure the average pH of the nebulizer solution was 8.85.

[3] = tested on: human subject having a respiratory condition; assay: Application of CGP (forced nasal lavage, spray/mist) to a human subject with post nasal drip, nasal obstruction and chronic cough; format: in vivo; details: one subject
Excerpt: CGP was incorporated into samples of a lavage or a spray product at varying concentrations, along with different sweetening/moisturizing components (sorbitol, glycerin) at varying levels (0.5% to 7.5% by weight), appropriate food/drug grade fungistats and bacteristats (methyl paraben and benzalkonium chloride), and light flavorings of several types (peppermint, spearmint and orange) in some iterations.
A first human subject for laboratory/home trials was a person in good general health. […] The subject has experienced a decades-long post nasal drip (PND) as an adult, nasal obstruction (mucus, septum). The subject has experienced coughs that have been of weeks-long and, on occasion, months-long duration, following seasonal flu or colds. The subject has experienced chronic throat-clearing from PND and chronic cough even when not post-respiratory illness, which they ascribe to bronchitis. […] The subject breathed almost exclusively through mouth as a child because of nasal obstruction. The subject breathes through both nose and mouth as an adult, with breathing through nose occasionally mildly problematic, requiring active conscious engagement, although the subject was never “short of breath” in terms of lung capacity, etc.
The subject performed forced nasal lavage once daily for about two weeks. The forced nasal lavage was conducted intranasally over skin and normally in a shower. An aqueous solution or suspension of CGP at various concentration, such as about 7.5%, 3.75%, 2.5%, 2%, 1.5% by weight of dry CGP, was forced into one nostril and out of the other nostril using a closed plastic bottle with an internal stem feed. This procedure was repeated for each side of the nostrils. Some product was swallowed via nasal route and there was approx. 2 oz. fluid per nostril.
The subject applied CGP into their nostrils in a spray or a mist. A closed small plastic bottle with internal stem feed constructed to deliver fluid contents as mist was used. Typically, one application was performed in the morning. Each application consisted of two sprays per nostril, alternating sides, with full simultaneous deep breath inhalation or inspiration to draw the product up the nose and into the airway passages. The spray was also, on occasion, applied directly through the mouth to the throat with 1 or 2 sprays per application. An average spray delivery contained about 200 mg of a formulation of CGP per squeeze. The formulation contained about 2% to about 3.75% by weight of dry CGP.
In addition to the routine application of CGP to prevent or control symptoms associated with the respiratory system, the subject has also used CGP to relieve symptoms during an episode of a condition of airway/upper respiratory tract. […] At about 10:45 A.M., the subject applied a double-dose of NasoCell (1.75% CGP by weight) via nasal inhalation in each nostril. At about 11:30 AM, the subject's symptoms were much improved. The subject then self-administered another dose of NasoCell in each nostril. […] The subject had no trouble breathing while they were eating during lunch. […] The subject's throat was cleared of any obstructions and breathing sounds, and was wide open. The subject's nasal passages were reopened and voice cleared from an earlier morning huskiness, characteristic of a post nasal drip condition. It is noteworthy that this subject observed that after some weeks of usage, much reduced usage was required to “maintain”, and that this included the skipping of usage altogether, some days.

[4] = forced nasal lavage or spray/mist

calcium glycerophosphate
daily observations, adverse health effects ([1]; dog, in vivo): No adverse health effects were found | tolerability ([1]; dogs, BID inhalation + intranasal instillation, Days 0 to 5): well tolerated | average pH of the nebulizer solution [2]: 8.85 | coughing [3, 4]: complete cessation of coughing | reduction of post nasal drip [3, 4]: 95-98% | decreased drainage ([3]; forced nasal lavage, 1.5-7.5% by weight CGP, about 10-20 minutes after the lavage): 90% | throat-clearing diminished compared with prior state ([3]; forced nasal lavage, about 20-60 minutes after the lavage): about 90% | symptoms (drip, cough, breathing) ([3]; forced nasal lavage, about 1 hr to 12/24 hr after the lavage): no drip, no cough, and easy open breathing | onset of relieving effects ([3]; nasal spray/mist, about 2% to 3.75% by weight CGP, two sprays per nostril): almost instantaneously upon application | duration of benefits post application ([3]; nasal spray/mist, about 2% to 3.75% by weight CGP): about four to eight hours | night breathing ([3]; single spray per nostril at bedtime): appeared to produce better night breathing
